Test results published in ChEMBL document CHEMBL5518175, “Design, synthesis, and biological evaluation of HDAC6 inhibitors targeting L1 loop and serine 531 residue” (Eur J Med Chem, 2024).
pIC50: −log10 of the molar value.

Tests used:
Histone deacetylase 1 = Histone deacetylase 1 (Homo sapiens, UniProt Q13547)
Description: Inhibition of HDAC1 (unknown origin) incubated for 30 mins by fluorescence plate reader assay

[1] = target: T1, Protein deacetylase HDAC6 (Homo sapiens, UniProt Q9UBN7)
T1 sequence (Q9UBN7 whole entry): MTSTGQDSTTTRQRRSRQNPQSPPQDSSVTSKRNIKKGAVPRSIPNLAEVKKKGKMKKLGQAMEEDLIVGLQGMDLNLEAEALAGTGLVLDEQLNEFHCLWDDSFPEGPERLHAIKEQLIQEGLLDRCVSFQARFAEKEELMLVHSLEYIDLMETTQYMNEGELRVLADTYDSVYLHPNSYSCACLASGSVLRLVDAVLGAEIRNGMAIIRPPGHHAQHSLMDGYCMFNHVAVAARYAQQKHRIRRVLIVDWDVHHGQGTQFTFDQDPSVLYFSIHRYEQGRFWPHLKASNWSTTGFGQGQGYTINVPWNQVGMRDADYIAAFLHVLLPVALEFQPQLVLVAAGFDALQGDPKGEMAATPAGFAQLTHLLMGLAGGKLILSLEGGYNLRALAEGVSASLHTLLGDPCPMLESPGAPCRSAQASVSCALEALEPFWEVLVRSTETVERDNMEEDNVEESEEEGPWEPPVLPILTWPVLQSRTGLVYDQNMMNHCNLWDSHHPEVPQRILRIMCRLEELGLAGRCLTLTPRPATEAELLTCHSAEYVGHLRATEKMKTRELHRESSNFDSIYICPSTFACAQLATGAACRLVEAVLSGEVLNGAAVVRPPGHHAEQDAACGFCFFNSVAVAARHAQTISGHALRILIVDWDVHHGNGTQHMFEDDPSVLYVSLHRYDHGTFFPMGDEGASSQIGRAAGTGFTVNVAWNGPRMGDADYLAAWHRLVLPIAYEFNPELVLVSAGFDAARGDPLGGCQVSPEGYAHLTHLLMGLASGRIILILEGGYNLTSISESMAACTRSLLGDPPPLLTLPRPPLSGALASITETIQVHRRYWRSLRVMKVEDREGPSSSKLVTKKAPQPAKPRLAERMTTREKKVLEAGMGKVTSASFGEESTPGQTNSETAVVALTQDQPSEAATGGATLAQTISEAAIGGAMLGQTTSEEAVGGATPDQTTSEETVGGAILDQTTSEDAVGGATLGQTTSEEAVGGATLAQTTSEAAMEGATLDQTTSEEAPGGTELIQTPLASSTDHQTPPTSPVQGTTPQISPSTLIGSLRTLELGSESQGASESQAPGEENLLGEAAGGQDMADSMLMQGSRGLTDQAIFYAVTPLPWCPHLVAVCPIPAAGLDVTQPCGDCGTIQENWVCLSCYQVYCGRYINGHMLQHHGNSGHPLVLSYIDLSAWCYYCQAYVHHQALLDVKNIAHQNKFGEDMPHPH
Description: Inhibition of HDAC6 (unknown origin) incubated for 30 mins by fluorescence plate reader assay

Histone deacetylase 2 = Histone deacetylase 2 (Homo sapiens, UniProt Q92769)
Description: Inhibition of HDAC2 (unknown origin) incubated for 30 mins by fluorescence plate reader assay

Histone deacetylase 3 = Histone deacetylase 3 (Homo sapiens, UniProt O15379); test: Inhibition of HDAC3 (unknown origin) incubated for 30 mins by fluorescence plate reader assay
Histone deacetylase 8 = target: T2, Histone deacetylase 8 (Homo sapiens, UniProt Q9BY41); test: Inhibition of HDAC8 (unknown origin) incubated for 30 mins by fluorescence plate reader assay
T2 sequence (Q9BY41 whole entry): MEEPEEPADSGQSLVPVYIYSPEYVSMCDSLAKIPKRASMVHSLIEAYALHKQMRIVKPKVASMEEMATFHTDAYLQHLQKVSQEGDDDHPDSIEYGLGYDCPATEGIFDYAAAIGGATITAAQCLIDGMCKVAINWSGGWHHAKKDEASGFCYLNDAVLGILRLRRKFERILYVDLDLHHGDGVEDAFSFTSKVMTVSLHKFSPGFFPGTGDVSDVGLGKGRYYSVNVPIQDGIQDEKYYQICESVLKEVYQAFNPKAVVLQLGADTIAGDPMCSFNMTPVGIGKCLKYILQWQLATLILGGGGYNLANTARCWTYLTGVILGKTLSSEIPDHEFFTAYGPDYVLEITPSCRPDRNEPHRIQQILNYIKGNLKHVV

Histone deacetylase 4 = Histone deacetylase 4 (Homo sapiens, UniProt P56524); test: Inhibition of HDAC4 (unknown origin) incubated for 30 mins by fluorescence plate reader assay
Histone deacetylase 5 = Histone deacetylase 5 (Homo sapiens, UniProt Q9UQL6); test: Inhibition of HDAC5 (unknown origin) incubated for 30 mins by fluorescence plate reader assay
Histone deacetylase 7 = target: T3, Histone deacetylase 7 (Homo sapiens, UniProt Q8WUI4); test: Inhibition of HDAC7 (unknown origin) incubated for 30 mins by fluorescence plate reader assay
T3 sequence (Q8WUI4 whole entry): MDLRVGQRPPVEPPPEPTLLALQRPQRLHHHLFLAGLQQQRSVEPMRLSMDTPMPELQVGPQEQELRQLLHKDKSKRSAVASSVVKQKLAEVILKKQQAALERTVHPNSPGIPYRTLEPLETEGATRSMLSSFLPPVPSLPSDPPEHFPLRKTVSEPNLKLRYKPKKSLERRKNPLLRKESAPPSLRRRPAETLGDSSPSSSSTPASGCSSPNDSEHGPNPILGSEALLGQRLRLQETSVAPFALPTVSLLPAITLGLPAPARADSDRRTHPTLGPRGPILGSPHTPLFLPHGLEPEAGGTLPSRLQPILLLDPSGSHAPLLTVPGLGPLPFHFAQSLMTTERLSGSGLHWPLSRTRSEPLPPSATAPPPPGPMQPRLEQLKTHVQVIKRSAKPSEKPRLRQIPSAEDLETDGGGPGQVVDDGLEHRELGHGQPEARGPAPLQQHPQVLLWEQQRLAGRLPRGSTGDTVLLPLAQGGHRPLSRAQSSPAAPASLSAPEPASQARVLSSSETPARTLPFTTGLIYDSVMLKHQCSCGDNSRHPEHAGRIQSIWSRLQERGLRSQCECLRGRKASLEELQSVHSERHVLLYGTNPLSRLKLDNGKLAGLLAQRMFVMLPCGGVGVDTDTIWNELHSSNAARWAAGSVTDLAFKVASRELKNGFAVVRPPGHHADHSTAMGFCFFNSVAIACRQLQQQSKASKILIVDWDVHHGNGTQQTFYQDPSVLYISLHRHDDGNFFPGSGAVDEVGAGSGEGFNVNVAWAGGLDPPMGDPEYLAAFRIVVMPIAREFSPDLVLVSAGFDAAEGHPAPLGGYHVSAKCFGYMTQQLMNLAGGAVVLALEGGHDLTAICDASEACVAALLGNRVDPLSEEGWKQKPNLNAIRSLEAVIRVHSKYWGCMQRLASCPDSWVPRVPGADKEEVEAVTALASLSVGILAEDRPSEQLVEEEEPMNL

Histone deacetylase 9 = Histone deacetylase 9 (Homo sapiens, UniProt Q9UKV0); test: Inhibition of HDAC9 (unknown origin) incubated for 30 mins by fluorescence plate reader assay
[2] = target: T4, Polyamine deacetylase HDAC10 (Homo sapiens, UniProt Q969S8); test: Inhibition of HDAC10 (unknown origin) incubated for 30 mins by fluorescence plate reader assay
T4 sequence (Q969S8 whole entry): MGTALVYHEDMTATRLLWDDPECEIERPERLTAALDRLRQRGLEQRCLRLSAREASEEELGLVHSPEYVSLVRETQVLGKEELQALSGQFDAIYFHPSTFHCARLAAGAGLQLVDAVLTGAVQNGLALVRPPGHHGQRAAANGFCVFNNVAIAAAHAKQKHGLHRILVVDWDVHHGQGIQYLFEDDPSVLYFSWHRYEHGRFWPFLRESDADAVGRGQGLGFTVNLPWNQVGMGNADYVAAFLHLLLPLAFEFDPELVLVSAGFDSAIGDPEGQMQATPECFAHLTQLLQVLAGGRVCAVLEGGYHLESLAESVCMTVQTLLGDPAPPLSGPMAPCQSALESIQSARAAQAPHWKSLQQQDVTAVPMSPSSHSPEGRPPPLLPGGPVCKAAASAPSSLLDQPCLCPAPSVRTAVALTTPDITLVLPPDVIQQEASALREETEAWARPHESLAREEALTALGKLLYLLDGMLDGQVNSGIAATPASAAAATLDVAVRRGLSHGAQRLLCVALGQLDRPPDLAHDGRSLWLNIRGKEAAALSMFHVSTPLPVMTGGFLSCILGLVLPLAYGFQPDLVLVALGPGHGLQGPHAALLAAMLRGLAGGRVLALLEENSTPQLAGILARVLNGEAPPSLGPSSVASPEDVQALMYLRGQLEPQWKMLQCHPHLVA

Histone deacetylase 11 = target: T5, Histone deacetylase 11 (Homo sapiens, UniProt Q96DB2); test: Inhibition of HDAC11 (unknown origin) incubated for 30 mins by fluorescence plate reader assay
T5 sequence (Q96DB2 whole entry): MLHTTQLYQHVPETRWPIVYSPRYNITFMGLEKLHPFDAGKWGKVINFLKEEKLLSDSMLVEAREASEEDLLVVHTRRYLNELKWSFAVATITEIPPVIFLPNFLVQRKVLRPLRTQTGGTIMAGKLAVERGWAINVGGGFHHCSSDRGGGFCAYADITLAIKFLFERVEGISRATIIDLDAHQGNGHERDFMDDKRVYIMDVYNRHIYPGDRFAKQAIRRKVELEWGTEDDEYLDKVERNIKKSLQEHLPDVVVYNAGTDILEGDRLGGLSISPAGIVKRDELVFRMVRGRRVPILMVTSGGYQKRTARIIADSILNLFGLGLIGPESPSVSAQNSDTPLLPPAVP

Histone deacetylase 1, sequence (Q13547 whole entry): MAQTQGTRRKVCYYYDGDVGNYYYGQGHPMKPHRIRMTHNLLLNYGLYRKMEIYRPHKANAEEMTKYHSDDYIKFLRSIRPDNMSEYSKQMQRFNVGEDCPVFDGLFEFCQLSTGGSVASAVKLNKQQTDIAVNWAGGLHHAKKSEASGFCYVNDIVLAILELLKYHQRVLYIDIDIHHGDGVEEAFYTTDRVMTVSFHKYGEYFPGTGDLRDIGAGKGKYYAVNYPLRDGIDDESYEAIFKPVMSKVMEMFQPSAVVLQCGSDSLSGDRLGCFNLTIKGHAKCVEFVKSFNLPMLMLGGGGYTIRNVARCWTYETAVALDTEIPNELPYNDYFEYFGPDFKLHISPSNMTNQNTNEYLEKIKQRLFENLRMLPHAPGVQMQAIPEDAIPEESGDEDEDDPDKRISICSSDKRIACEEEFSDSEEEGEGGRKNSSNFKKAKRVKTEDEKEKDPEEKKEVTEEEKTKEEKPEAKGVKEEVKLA
Histone deacetylase 4, sequence (P56524 whole entry): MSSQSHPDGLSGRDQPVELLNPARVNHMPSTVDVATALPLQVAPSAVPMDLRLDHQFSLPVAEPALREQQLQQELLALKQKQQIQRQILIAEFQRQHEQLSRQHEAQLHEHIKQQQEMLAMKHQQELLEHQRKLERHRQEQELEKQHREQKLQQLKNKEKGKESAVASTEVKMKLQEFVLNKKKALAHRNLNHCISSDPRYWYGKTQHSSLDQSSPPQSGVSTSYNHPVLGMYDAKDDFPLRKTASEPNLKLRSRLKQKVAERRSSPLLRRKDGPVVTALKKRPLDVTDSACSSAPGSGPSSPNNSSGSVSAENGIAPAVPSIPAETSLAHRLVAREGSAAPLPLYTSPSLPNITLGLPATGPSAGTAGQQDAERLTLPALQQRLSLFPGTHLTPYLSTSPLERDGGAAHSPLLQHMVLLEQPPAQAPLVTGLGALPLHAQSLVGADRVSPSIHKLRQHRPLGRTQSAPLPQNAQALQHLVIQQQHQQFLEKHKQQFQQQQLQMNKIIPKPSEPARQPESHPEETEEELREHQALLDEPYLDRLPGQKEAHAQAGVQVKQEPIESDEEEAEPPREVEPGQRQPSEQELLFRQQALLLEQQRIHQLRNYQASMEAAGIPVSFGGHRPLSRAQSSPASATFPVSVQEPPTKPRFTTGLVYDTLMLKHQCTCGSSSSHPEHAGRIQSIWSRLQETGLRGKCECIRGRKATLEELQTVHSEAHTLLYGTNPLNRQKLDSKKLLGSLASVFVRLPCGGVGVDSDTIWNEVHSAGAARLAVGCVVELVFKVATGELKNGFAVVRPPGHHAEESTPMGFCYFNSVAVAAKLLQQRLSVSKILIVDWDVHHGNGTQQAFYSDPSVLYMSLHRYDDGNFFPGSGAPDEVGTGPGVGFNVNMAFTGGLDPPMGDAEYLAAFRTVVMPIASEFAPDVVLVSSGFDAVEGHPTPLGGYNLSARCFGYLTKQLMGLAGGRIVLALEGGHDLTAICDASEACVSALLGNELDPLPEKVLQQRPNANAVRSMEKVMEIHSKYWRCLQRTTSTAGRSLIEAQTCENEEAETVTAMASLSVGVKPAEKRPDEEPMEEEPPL
Histone deacetylase 5, sequence (Q9UQL6 whole entry): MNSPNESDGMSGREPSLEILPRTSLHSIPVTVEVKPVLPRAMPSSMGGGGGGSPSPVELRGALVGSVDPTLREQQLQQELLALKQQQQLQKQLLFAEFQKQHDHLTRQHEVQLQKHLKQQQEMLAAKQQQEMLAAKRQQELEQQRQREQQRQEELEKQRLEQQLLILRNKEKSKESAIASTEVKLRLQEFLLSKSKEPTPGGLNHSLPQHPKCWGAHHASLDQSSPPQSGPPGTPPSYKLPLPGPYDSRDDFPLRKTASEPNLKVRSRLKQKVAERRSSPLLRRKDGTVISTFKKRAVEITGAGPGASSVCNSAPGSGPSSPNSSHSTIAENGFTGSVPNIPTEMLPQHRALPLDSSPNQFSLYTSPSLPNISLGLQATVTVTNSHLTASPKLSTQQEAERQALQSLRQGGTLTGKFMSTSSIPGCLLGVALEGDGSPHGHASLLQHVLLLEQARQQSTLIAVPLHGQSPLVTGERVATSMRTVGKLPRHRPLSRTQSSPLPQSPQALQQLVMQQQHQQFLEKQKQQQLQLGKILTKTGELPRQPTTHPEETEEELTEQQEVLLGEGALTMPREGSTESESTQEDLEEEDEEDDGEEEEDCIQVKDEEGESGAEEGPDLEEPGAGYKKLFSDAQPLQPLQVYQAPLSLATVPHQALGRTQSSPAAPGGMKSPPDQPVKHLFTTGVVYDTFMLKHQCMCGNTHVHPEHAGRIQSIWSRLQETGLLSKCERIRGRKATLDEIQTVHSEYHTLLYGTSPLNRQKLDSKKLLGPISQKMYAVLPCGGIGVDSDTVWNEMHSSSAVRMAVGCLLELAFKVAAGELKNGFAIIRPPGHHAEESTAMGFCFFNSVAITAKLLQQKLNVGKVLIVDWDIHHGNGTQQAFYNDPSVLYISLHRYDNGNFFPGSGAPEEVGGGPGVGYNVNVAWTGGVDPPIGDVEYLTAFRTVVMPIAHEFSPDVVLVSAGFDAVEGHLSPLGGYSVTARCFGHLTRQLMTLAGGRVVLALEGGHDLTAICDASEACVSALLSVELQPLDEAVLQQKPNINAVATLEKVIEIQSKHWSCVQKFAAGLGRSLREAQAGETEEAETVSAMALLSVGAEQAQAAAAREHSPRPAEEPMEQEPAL
Histone deacetylase 9, sequence (Q9UKV0 whole entry): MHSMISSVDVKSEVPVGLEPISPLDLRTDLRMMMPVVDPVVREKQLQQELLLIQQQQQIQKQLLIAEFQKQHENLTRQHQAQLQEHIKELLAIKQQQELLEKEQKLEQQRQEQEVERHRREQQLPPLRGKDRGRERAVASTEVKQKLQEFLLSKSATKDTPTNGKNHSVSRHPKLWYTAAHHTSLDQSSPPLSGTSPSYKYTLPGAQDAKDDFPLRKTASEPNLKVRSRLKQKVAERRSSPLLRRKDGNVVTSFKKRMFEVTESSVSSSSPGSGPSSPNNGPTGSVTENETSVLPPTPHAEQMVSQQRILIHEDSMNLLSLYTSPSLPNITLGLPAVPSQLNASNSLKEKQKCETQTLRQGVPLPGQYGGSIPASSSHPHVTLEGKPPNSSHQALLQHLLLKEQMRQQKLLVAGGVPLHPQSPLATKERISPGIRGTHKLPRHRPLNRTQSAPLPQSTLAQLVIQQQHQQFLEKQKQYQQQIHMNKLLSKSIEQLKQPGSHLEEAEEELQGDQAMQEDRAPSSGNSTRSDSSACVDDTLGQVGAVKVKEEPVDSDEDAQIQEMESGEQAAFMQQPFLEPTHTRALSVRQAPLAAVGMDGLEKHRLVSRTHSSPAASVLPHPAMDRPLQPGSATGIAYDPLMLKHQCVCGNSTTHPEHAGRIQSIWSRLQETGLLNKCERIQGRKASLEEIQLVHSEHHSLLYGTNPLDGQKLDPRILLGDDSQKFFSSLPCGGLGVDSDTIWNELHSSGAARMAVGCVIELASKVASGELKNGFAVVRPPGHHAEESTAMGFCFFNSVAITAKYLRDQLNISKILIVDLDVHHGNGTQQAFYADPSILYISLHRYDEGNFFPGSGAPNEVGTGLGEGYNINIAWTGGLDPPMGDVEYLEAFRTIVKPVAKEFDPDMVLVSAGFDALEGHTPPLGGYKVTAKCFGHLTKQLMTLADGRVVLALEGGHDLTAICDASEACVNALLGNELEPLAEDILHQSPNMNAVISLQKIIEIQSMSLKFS
Histone deacetylase 3, sequence (O15379 whole entry): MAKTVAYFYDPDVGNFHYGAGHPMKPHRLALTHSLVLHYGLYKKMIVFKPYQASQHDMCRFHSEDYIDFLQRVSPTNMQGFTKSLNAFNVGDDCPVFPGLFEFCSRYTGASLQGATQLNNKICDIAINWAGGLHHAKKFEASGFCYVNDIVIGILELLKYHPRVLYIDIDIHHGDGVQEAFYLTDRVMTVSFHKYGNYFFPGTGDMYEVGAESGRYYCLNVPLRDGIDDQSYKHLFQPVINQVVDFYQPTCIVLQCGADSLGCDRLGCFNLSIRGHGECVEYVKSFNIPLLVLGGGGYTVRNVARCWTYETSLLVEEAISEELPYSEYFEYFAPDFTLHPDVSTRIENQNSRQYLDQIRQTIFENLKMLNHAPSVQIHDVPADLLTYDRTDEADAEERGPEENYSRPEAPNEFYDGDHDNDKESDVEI
Histone deacetylase 2, sequence (Q92769 whole entry): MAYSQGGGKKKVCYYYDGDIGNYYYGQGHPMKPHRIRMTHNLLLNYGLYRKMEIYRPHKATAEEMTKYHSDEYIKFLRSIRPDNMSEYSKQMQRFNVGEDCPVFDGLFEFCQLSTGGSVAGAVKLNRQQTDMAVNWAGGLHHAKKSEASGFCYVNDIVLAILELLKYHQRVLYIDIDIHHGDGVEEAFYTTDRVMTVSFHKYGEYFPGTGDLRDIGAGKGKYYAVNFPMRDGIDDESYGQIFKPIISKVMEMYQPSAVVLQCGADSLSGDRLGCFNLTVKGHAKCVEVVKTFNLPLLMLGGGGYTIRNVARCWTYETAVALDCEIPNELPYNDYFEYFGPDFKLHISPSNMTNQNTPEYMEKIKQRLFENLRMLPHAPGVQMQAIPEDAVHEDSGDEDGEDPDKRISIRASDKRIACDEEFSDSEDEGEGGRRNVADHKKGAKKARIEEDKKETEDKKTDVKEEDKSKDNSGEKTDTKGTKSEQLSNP

| pIC50 (Histone deacetylase 1) | pIC50 [1] | pIC50 (Histone deacetylase 2) | pIC50 (Histone deacetylase 3) | pIC50 (Histone deacetylase 8) | pIC50 (Histone deacetylase 4) | pIC50 (Histone deacetylase 5) | pIC50 (Histone deacetylase 7) | pIC50 (Histone deacetylase 9) | pIC50 [2] | pIC50 (Histone deacetylase 11) | SMILES |
| --- | --- | --- | --- | --- | --- | --- | --- | --- | --- | --- | --- |
| 6.03 | 7.06 | – | – | – | – | – | – | – | – | – | O=C(NO)c1ccc(CNC(=O)c2ccccc2)cc1 |
| 6.07 | – | < 5.00 | 5.71 | 5.35 | < 5.00 | < 5.00 | 5.31 | < 5.00 | 5.85 | < 5.00 | O=C(NO)c1ccc(CN(Cc2ccccc2)C(=O)c2ccccc2)cc1 |
